The values that follow come from patent US20040023978A1, “Active salt forms with tyrosine kinase activity” (priority 2002, published 2004).

Data set [1] is described as follows: Stability of the crystal form (XRPD, hot-stage XRPD).
Text: The mesylate salt (Form A) was further studied using hot-stage XRPD. […] The dehydration could also be achieved by suspending the mesylate monohydrate in hot acetonitrile.
A short description of data set [2]: Hygroscopicity, step isotherm at 25° C. The data set is classed as physicochemical. Conditions: 90-95% RH.
Experimental: The hygroscopicity of the mesylate salt was determined at 25° C. using a step isotherm program for relative humidities from 0 to 95% RH following drying at 40° C./0%RH for two hours.
Data set [3] can be described thus: Solubility at room temperature (HPLC isocratic method). The data set is classed as physicochemical.

One may read the solubility as the dissolved amount per volume that the medium holds.

Like-named read-outs stand apart in the source and are kept apart here.

With “1-({2-[(5-cyano-1,3-thiazol-2-yl)amino]pyridin-. 4-yl}methyl)-4-[(methylamino)carbonyl]piperazin-1-ium methanesulfonate [dehydrated mesylate salt (Form B)]”, the “stability of the form under ambient conditions” value in data set [1] (ambient conditions overnight) is given as “stable”. For the same compound, the “behaviour of the aqueous solution on aging” value in data set [1] (water, aged for two days, recovered solid by XRPD the monohydrate (Form A)) was “a white precipitate was noticed”. Also, the weight gain result in data set [2] was “about 1.2 % wt”.

In the case of `CNC(=O)N1CCN(Cc2ccnc(Nc3ncc(C#N)s3)c2)CC1.CS(=O)(=O)O` [mesylate salt (Form A), 1-({2-[(5-cyano-1,3-thiazol-2-yl)amino]pyridin-4-yl}methyl)-4-[(methylamino)carbonyl]piperazin-1-ium methanesulfonate], the solubility in data set [3] (aqueous with cosolvent or surfactant or cyclodextrin, thermodynamic from solid, 10% HP-βCD, pH adjusted with 0.1 N HCl to about pH 3, room temperature, read-out: Solubility) is 27.1 mg/mL; in data set [3] (aqueous with cosolvent or surfactant or cyclodextrin, thermodynamic from solid, 15% HP-βCD, pH adjusted with 0.1 N HCl to about pH 3, room temperature, read-out: Solubility), 35.3 mg/mL; in data set [3] (aqueous with cosolvent or surfactant or cyclodextrin, thermodynamic from solid, 20% HP-βCD, pH adjusted with 0.1 N HCl to about pH 3, room temperature, read-out: Solubility), 40.7 mg/mL; in data set [3] (aqueous with cosolvent or surfactant or cyclodextrin, thermodynamic from solid, 25% HP-βCD, pH adjusted with 0.1 N HCl to about pH 3, room temperature, read-out: Solubility), 45 mg/mL; in data set [3] (aqueous with cosolvent or surfactant or cyclodextrin, thermodynamic from solid, 25% PEG/10% EtOH, room temperature, read-out: Solubility), 11.6 mg/mL; in data set [3] (aqueous with cosolvent or surfactant or cyclodextrin, thermodynamic from solid, 30% PG/10% EtOH, room temperature, read-out: Solubility), 13.6 mg/mL. In addition, the solubility in data set [3] (organic solvent or mixture, thermodynamic from solid, Ethanol, room temperature, read-out: Solubility) turned out to be 0.98 mg/mL; in data set [3] (organic solvent or mixture, thermodynamic from solid, IPA, room temperature, read-out: Solubility) it was 0.64 mg/mL; in data set [3] (organic solvent or mixture, thermodynamic from solid, PEG, room temperature, read-out: Solubility), 1.41 mg/mL; in data set [3] (organic solvent or mixture, thermodynamic from solid, PG, room temperature, read-out: Solubility), 30.4 mg/mL; in data set [3] (thermodynamic from solid, water, room temperature (Table I), read-out: Solubility) it was 6.65 mg/mL; in data set [3] (water (text b274), read-out: solubility in water) it was 4.7 mg/mL.
